# Reference: patent US9234025B2, “Extracellular allosteric inhibitor binding domain from a tyrosine kinase receptor” (SANOFI, priority 2009, dated 2016)
# Legend:
# FGFR2^∂23 = molecular target: T1, FGFR2^∂23 (Homo sapiens, UniProt P21802); test: Fourier transform infrared (FTIR) measurement, FGFR2 D2-3; conditions: maximum around 1,640 cm^−1, 100 μM SSR
# T1 construct: FGFR2^∂23 (consisting of domain D2 and 3); made in house
# Procedure: Fourier transform infrared measurements were performed using a Bruker Tensor 37 FT-IR spectrometer equipped with an AquaSpec flowcell. The sample compartment was thermostatted to 25° C., 100 spectra were averaged for a good signal to noise ratio. Proteins were purified as described above. Immediately after the gelfiltration, the proteins were dialysed overnight in the same preparation of buffer (10 mM Hepes pH 7.2, 150 mM NaCl) in the presence or absence of SSR. Dialysis buffer samples were used to substract background signal. The analysis was performed using the OPUS software package, provided by Bruker. Interpretation of the results was performed as described {Barth, 2002 #60}.
# FGF2 = FGF2 (Homo sapiens, UniProt P09038); test: ITC or STD-NMR, FGF2; format: binding; design: FGF2 (amino acids 9-155); made in house
# Procedure: The extracellular domain (ECD; amino acids: 39-358) of the human FGFR1 gene (P11362) was PCR amplified and cloned into E. coli vector pETTEV (with a N-terminal His-tag followed by a TEV protease cleavage site), using NdeI and BamHI restriction sites. For protein production, the resulting plasmid (pET FGFR1 D1D2D3) was transformed into E. coli BL21(DE3) (Novagene). Cells were grown at 37° C. until the OD600 reached 0.6 and recombinant protein production was induced by adding 1 mM IPTG (isopropyl-b-D-thiogalactopyranoside). After 4 hours induction, cells were harvested and stored at −80° C. until usage. The cell pellet (1 L culture) was thawed and resuspended in 50 ml buffer 1 (20 mM Tris/HCl, pH 7.5, 200 mM NaCl) containing lysozyme (2 mg), and 40 U benzonase (Merck). […] Complex formation was analyzed by size exclusion chromatography and subsequent analysis on SDS-PAGE.
# All STD- and 1D-NMR experiments were carried out on a BRUKER three-channel DRX600 and on a BRUKER four-channel DRX800 spectrometer at the standard temperature of 298 K and were referenced to the internal standard 3-Trimethyl-2,2,3,3-tetradeuteropropionate-sodium salt (TSP). […] For protein ligand 1D STD NMR measurements spectra were recorded with 1 mM ligand SSR128129E (100 mM DMSO stock solution) and […] protein with weak 2s RF irradiation on separated protein methyl resonances. […]
# B9-FGFR3WT cell line = test: B9 myeloma cell proliferation, FGFR3WT; format: cell-based; conditions: 0.1 μM SSR; FGF1 25 ng/ml
# Procedure: Cell proliferation was analysed on exponentially growing cells that were starved for 16 hours in IMDM (Invitrogen, 31980048), 0.2% FBS, 2 mM glutamine containing medium and seeded at 4,000 cells/well in 96-well microplates. After exposure to mitogens and/or SSR for 72 hours, cell proliferation was assessed with the use of the CellTiter 96 AQueous One Solution Cell Proliferation Assay (Promega, Madison, Wis., USA) according to manufacturer's instructions.
# For studying SSR effect on FGFR3, the proliferation of B9-myeloma cells, expressing either FGFR3WT or FGFR3TD (a constitutively activated FGFR3 variant induced by the K650E mutation, even in the absence of any ligand; Truedel et al; blood 2006), was assayed by stimulation with FGF1 (25 ng/ml).
# various FGFRs = test: additional SPA assays, FGF ligands to various FGFRs; format: binding
# HUVEC = HUVEC chemotactic migration; format: cell-based, human; conditions: FGFR1-driven
# Procedure: Confluent HUVEC cells are harvested and resuspended in RPMI 1640 (Invitrogen, 32404-014) without FCS, 2 mM glutamine, MEM non-essential amino-acid 1× (Gibco, 11140-035), MEM sodium pyruvate 1× (Gibco, 11360-039) at 0.8 10^6 cells/ml. 250 μl of cell solution is distributed with 4×SSR in the upper chamber of 24-wells BD Biocoat Angiogenesis System for endothelial cell migration (BD Biocoat, 354144) and 750 μl of medium in the lower chamber with FGF2 (R&D, 234-FSE-025), FGF4 (R&D, 235-F4-025) or FGF-19 (in house produced) at 67 ng/ml. Plates are incubated 22 h at 37° C. in a CO2 chamber. Then, plate insert is removed, and placed in a new 24-wells plate (Falcon, 353504) that contains 500 μL of calcein (Molecular probes, C-3100) for 90 min. Then migrated cells are fluorescent and migration is measured by a […] with downstairs reading following 485 nm excitation and 535 nm emission.
# T1 sequence (P21802 148-366 limits assumed): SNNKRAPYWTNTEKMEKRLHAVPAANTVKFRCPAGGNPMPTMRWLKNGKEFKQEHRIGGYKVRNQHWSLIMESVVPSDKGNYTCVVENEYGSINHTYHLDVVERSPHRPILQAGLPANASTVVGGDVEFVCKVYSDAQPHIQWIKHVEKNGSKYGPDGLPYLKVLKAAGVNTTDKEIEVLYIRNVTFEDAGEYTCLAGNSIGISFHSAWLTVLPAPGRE
# FGF2, sequence (P09038 142-288): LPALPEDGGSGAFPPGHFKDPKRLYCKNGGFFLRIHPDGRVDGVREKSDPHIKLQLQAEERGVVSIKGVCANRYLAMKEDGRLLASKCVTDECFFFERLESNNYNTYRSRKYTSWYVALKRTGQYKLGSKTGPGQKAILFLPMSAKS
structure (smiles),measurement,setting,value
COc1c(C)c(C(=O)c2ccc(N)c(C(=O)[O-])c2)n2ccccc12.[Na+] [SSR],change of FTIR spectrum (conformational change),FGFR2^∂23,increase in the amplitude of the amide I band
same,binding to FGF2,FGF2,failed to bind
same,FGF1-induced proliferation of B9-FGFR3WT cells,B9-FGFR3WT cell line,inhibited
same,binding of different FGF ligands to various FGFRs,various FGFRs,blocking the binding of different FGF ligands to various FGFRs
same,FGF2-induced HUVEC chemotactic migration,HUVEC,reduction of FGF2-induced HUVEC chemotactic migration
